Source: patent US8067529B2, “Immunogenic T-helper epitopes from human tumour antigens and immunotherapeutic methods using said epitopes” (Immatics Biotechnologies GmbH, priority 2004, dated 2011)

Tests used:
Assay type in all cases: cell-based, human
[1] = test system: T-helper cell line; experiment: T-helper cell proliferation by thymidine incorporation (stimulation index); conditions: T-helper cell line with irradiated autologous PBMC; 10 μM peptide or 3 μg/ml PHA; thymidine incorporation at 72 hours
Experimental: 3×10^5 matured DC were loaded for two hours with 10 μM of peptide […] (SEQ ID NO: 1) in a 24-well plate and extensively washed. Then 4×10^6 fresh autologous PBMC were added onto DC in the presence of 10 ng/ml IL-12p70 in order to favour Th-1 development. PBMC were weekly restimulated with peptide-loaded irradiated autologous PBMC in the presence of 10 U/ml IL-2 and 5 ng/ml IL-7. After 3 and 5 restimulations, T cells were pooled and tested against autologous PBMC in the presence of peptide. […]
T-helper cell activation was tested by cell proliferation as estimated by thymidine incorporation as well as cytokine secretion. […] After 54 hours, 50 μl of tritiated thymidine-containing medium (0.074 MBq/well, Hartmann Analytic, Braunschweig, Germany) was added and thymidine incorporation measured at 72 hours using a scintillation counter (Microbeta, Wallac, Freiburg, Germany). Cell proliferation is expressed as a stimulation index (S.I.), which corresponds to the ratio: (mean cpm of stimulated T cells)/(mean cpm of unstimulated T cells). IL-2 secretion was measured using the IL-2 dependent CTLL-2 cell line. […] Then, thymidine-containing-medium (0.055 MBq/well) was added for 7-8 additional hours and thymidine incorporation was measured as described above. Results are also expressed as a S.I.

[2] = test system: IL-2; experiment: IL-2 secretion measured with the IL-2 dependent CTLL-2 cell line; conditions: T-helper cell line with autologous PBMC; 10 μM peptide or 3 μg/ml PHA; 24 hours supernatant
Experimental: (§1) T-helper cell activation was tested by cell proliferation as estimated by thymidine incorporation as well as cytokine secretion. Briefly, 2×10^5 cells were incubated in triplicates in a 96-well plate with 2×10^5 irradiated autologous PBMC in the presence or absence of 10 μM peptide or 3 μg/ml PHA. After 24 hours, two portions of 50 μl supernatant were harvested and frozen and 50 μl fresh medium was added to the cells. After 54 hours, 50 μl of tritiated thymidine-containing medium (0.074 MBq/well, Hartmann Analytic, Braunschweig, Germany) was added and thymidine incorporation measured at 72 hours using a scintillation counter (Microbeta, Wallac, Freiburg, Germany). Cell proliferation is expressed as a stimulation index (S.I.), which corresponds to the ratio: (mean cpm of stimulated T cells)/(mean cpm of unstimulated T cells). IL-2 secretion was measured using the IL-2 dependent CTLL-2 cell line. Briefly, 10^4 cells were incubated in the presence of supernatants for 20-24 hours. Then, thymidine-containing-medium (0.055 MBq/well) was added for 7-8 additional hours and thymidine incorporation was measured as described above. Results are also expressed as a S.I.

[3] = test system: IL-4; experiment: IL-4 secretion by sandwich ELISA; conditions: T-helper cell line; 10 μM peptide or 3 μg/ml PHA
Experimental: as §1, with “cell line. […] Then, thymidine-containing-medium” for “cell line. Briefly, 10^4 cells were incubated in the presence of supernatants for 20-24 hours. Then, thymidine-containing-medium”, “a S.I. IFN-γ, IL-4 and IL-6 secretion was measured by sandwich ELISA using antibody pairs and peroxidase-conjugated streptavidin from PharMingen and according to Manufacturer's recommendations. […] OD450 was then measured and results expressed in pg/ml according to the standards.” for “a S.I.”

[4] = test system: IL-6; experiment: IL-6 secretion by sandwich ELISA; conditions: T-helper cell line; 10 μM peptide or 3 μg/ml PHA
Experimental: as §1, with “cell line. […] Then, thymidine-containing-medium” for “cell line. Briefly, 10^4 cells were incubated in the presence of supernatants for 20-24 hours. Then, thymidine-containing-medium”, “a S.I. IFN-γ, IL-4 and IL-6 secretion was measured by sandwich ELISA using antibody pairs and peroxidase-conjugated streptavidin from PharMingen and according to Manufacturer's recommendations. […] OD450 was then measured and results expressed in pg/ml according to the standards.” for “a S.I.”

[5] = test system: Ii-fusion proteins; experiment: Endosomal/lysosomal targeting of the fusion proteins (chloroquin, Western blot with mAb PIN.1); conditions: transfectants incubated 4 h with increasing amounts of chloroquin (10-100 μM)
Experimental: Fusion proteins were detected by Western blot analysis using the mAb PIN.1 (Stressgen, Biomol, Hamburg, Germany) which binds to amino acid residues 12-28 of Ii. Briefly, cells were lysed as described (Hsieh, C. S., deRoos, P., Honey, K., Beers, C. & Rudensky, A. Y. (2002) J. Immunol. 168, 2618-2625), lysates were boiled in Laemmli loading buffer, separated on a 12% SDS-PAGE and transferred onto nitrocellulose membranes. After a saturation step with BSA, membranes were incubated for 1 h at room temperature with the mAb PIN.1 (1 μg/ml). Proteins were visualised using a peroxidase-coupled sheep anti-mouse IgG (Amersham Pharmacia, Freiburg, Germany). […] Cells were then lysed and proteins were detected by Western blot as described above.
It has already been described that the N-terminus of Ii is sufficient to target proteins into the MHC class II pathway (Sanderson, S., Frauwirth, K. & Shastri, N. (1995) Proc. Natl. Acad. Sci. U.S. A 92, 7217-7221, Wang, R. F., Wang, X., Atwood, A. C., Topalian, S. L. & Rosenberg, S. A. (1999) Science 284, 1351-1354, Malcherek, G., Wirblich, C., Willcox, N., Rammensee, H. G., Trowsdale, J. & Melms, A. (1998) Eur. J. Immunol. 28, 1524-1533). […] Cells were then lysed and fusion proteins were detected by Western blot.

[6] = test system: IFN-γ; experiment: IFN-γ secretion by sandwich ELISA; conditions: peptide-induced T-cell stimulation, 10 μM peptide; 24 hours supernatant
Experimental: as §1, with “cell line. […] Then, thymidine-containing-medium” for “cell line. Briefly, 10^4 cells were incubated in the presence of supernatants for 20-24 hours. Then, thymidine-containing-medium”, “a S.I. IFN-γ, IL-4 and IL-6 secretion was measured by sandwich ELISA using antibody pairs and peroxidase-conjugated streptavidin from PharMingen and according to Manufacturer's recommendations. […] OD450 was then measured and results expressed in pg/ml according to the standards.” for “a S.I.”

Phytohaemagglutinin [PHA]
T-cell proliferation, stimulation index (S.I.) [1]: 330 | IL-2 production of the T cells [2]: still sensitive to PHA stimulation | IL-4 secretion [3]: highly | IL-6 secretion [4]: moderately

CCN(CC)CCCC(C)Nc1ccnc2cc(Cl)ccc12 (stereo not shown) [chloroquin]
fusion protein amounts (Western blot band intensity) [5]: fusion protein amounts increase with chloroquin concentrations

NPPSMVAAGSVVAAV (listed as Homo sapiens) [cyclin D1 peptide, immunogenic HLA-DR4-presented cyclin D1 peptide antigen]
T-cell proliferation, stimulation index (S.I.) [1]: 5.4 | IL-2 production of the T cells [2]: produced IL-2 in response to the peptide, although to a low extent | IFN-γ secretion [6]: 3250 pg/mL | IL-4 secretion [3]: no IL-4 or IL-6 secretion | IL-6 secretion [4]: no IL-4 or IL-6 secretion
